Read-outs that look alike come from different tables or passages of the source.
Experiments:
[1] = target: T1, sEH enzyme (human recombinant) (Homo sapiens, UniProt P34913); assay: in vitro sEH enzyme activity by fluorescence analysis, single concentration inhibition; type: biochemical; settings: read-out: sEH % inhibition, @ 0.1 μM
T1 construct: purchased Cayman Chemical
T1 sequence (P34913 1-555): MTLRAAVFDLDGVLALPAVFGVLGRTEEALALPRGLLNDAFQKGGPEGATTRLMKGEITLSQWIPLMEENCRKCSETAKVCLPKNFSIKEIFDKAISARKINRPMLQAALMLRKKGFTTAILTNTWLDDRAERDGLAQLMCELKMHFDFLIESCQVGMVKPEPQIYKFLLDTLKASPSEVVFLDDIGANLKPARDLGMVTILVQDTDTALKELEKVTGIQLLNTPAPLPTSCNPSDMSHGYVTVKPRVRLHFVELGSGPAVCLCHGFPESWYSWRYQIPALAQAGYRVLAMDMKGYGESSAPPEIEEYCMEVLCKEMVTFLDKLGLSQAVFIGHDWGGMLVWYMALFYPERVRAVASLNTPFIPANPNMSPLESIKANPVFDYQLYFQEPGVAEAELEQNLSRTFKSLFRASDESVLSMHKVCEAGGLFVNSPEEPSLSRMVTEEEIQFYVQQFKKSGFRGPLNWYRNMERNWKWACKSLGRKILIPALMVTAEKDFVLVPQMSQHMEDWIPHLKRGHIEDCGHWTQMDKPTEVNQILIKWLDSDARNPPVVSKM
Experimental: The benzothiazole skeleton compounds (concentration: 0.1 μM) according to the above formula I of the present invention were tested for the in vitro sEH enzyme activity by fluorescence analysis.
12 μL of sEH enzyme (human recombinant, 0.5 mg/mL, Cayman Chemical) was diluted with 588 μL of buffer (25 mM bis-Tris, pH 7.0). The fluorescent substrate was PHOME (cyano-(6-methoxy-naphthalen-2-yl)-methyl (3-phenyl-oxiranyl)-acetate) in DMSO (10 μM, Cayman Chemical). The compound to be tested was dissolved in 100% DMSO at a concentration of 4 μM. 185 μL of buffer (25 mM bis-Tris, pH 7.0), 5 μL of compound solution, and 5 μL of diluted sEH enzyme were added to the wells of a 96-well plate, and finally 5 μL of substrate solution was added to initiate the reaction. After incubating at 37° C. for 15 min, the fluorescence signal was measured with a microplate reader (excitation wavelength 330 nm, emission wavelength 465 nm).
Inhibition (%)=(F0−F1)/(F0)×100.

[2] = target: T1, sEH enzyme (human recombinant); assay: in vitro IC50 of soluble epoxide hydrolase (sEH) by fluorescence analysis; type: biochemical
Experimental: The benzothiazole skeleton compounds according to the above formula I of the present invention were tested for the in vitro sEH enzyme activity by fluorescence analysis. […] 12 μL of sEH enzyme (human recombinant, 0.5 mg/mL, Cayman Chemical) was diluted with 588 μL of buffer (25 mM bis-Tris, pH 7.0). […] The inhibitions at different concentrations for the compound were respectively measured in accordance with the inhibition assay, to calculate IC50.

[3] = test system: carrageenan-induced paw swelling in KM mice; assay: Measurement of anti-inflammatory effect, carrageenan-induced paw swelling; type: in vivo; settings: intraperitoneal injection 1 hour before carrageenan, FIG. 3
Experimental: 1 hour in advance, the mice were intraperitoneally injected with the solutions of the compounds of Examples 12, 18, 27, and 40 (10% PEG 400, 10% Tween 80) or the blank solvent, respectively. Taking the initial paw thickness of the mice before modeling as 100%, the changes in the paw thickness of the mice were measured.

[4] = test system: traumatic brain injury model SD rats; assay: Measurement of brain injury protection, traumatic brain injury model (modified Feeney method); type: in vivo
Experimental: 45 male SD rats (6 to 8 weeks old) (SPF (Beijing) Biotechnology Co., Ltd.) were divided into the sham group, blank solvent group, and dosing group. 72 hours after intraperitoneally injecting the compound of Example 12 or blank solvent, a traumatic brain injury model was established using the modified Feeney method (Marmarou A, Foda M A, van den Brink W, et al., A new model of diffuse brain injury in rats. Part I: Pathophysiology and biomechanics. Journal of Neurosurgry, 1994, 80(2):291 to 300.). 23 hours after model establishment, three […] in each group were injected with Evans blue solution through the tail vein, and after 1 hour of circulation, the mice were decapitated and the brain was taken out to determine the content of Evans blue (EB), so as to study the permeability. Another three rats were taken to measure the water content in brain.

[5] = test system: streptozotocin STZ diabetic model Balb/c mice; assay: Measurement of hypoglycemic effect, streptozotocin diabetic model; type: in vivo; settings: intraperitoneal once a day, after two weeks, FIG. 4
Experimental: Male Balb/c mice (6 to 8 weeks old) (SPF (Beijing) Biotechnology Co., Ltd.) were intraperitoneally injected with streptozotocin STZ (40 mg/kg) once a day for 5 consecutive days, to prepare a diabetic model (Like A A, Rossini A A. Streptozotocin-induced pancreatic insulitis: new model of diabetes mellitus. Science, 1976, 193(4251):415-7). The mice after modeling were intraperitoneally injected with the solution of compound of Example 12 once a day.

[6] = test system: carrageenan inflammatory pain model SD rats; assay: Measurement of analgesic effect, carrageenan inflammatory pain model, hot plate; type: in vivo; settings: intragastric suspension 15 mg/mL, 1 hour before modeling, FIG. 6
Experimental: Male SD rats (6 to 8 weeks old) (SPF (Beijing) Biotechnology Co., Ltd.) were subcutaneously injected with 50 μL of 1% λ-carrageenan saline solution at planta to prepare an inflammatory pain model (Rose T E, Morisseau C, Liu J Y, et al. 1-Aryl-3-(1-acylpiperidin-4-yl)urea inhibitors of human and murine soluble epoxide hydrolase: structure-activity relationships, pharmacokinetics, and reduction of inflammatory pain. J Med Chem, 2010, 53(19): 7067-7075). The compounds of Examples 12 and 40 were added to 0.5% sodium carboxymethylcellulose solution and ground to prepare a suspension with a concentration of 15 mg/mL. 1 hour before modeling, the rats were intragastrically administrated. The changes in the paw withdrawal time of rats were measured with a hot plate dolorimeter.

[7] = test system: lipopolysaccharide-injected KM mice, forced swimming test; assay: Measurement of antidepressant effect, lipopolysaccharide / forced swimming test; type: in vivo; settings: subcutaneous injection 23 hours after lipopolysaccharide, test 1 hour later, FIG. 7
Experimental: Male KM mice (6 to 8 weeks old) (SPF (Beijing) Biotechnology Co., Ltd.) swam in advance for 10 min, and were injected with lipopolysaccharide (0.5 mg/kg). After 23 hours, the mice were subcutaneously injected with the solutions of the compounds of Examples 12 and 40 or the blank solvent. After 1 hour, the mice were subjected to the forced swimming test for 6 min, and the immobility time (s) in later 4 minute for the mice in each group was recorded.

[8] = test system: unilateral ureteral obstruction (UUO) C57BL/6J mice; assay: Measurement of anti-fibrosis effect, unilateral ureteral obstruction (UUO) model; type: in vivo; settings: intraperitoneal 30 mg·kg−1·d−1, 7 days after modeling
Experimental: Male C57BL/6J mice (6 to 8 weeks old) (SPF (Beijing) Biotechnology Co., Ltd.) were divided into 3 groups: sham group, unilateral ureteral obstruction (UUO) group, and UUO+Ex. 16 compound group. After the mice were anesthetized, the left ureter was ligated and cut to create a model. In the sham group, the ureter was only isolated without ligation. The experimental animals were administrated 72 hours before modeling, and the aqueous solution of Ex. 16 compound (10% PEG400, 10% Tween 80, concentration: 9 mg/mL) was intraperitoneally injected at a dose of 30 mg·kg^−1·d^−1; and the sham group and UUO group were intraperitoneally injected with an equal volume of blank solvent. 7 days after modeling, the animals were sacrificed, and samples were taken for testing.

[9] = compound 0.1 μM, human recombinant sEH, PHOME substrate, 37° C. 15 min
[10] = human recombinant sEH, PHOME substrate, read-out: IC50

SMILES | inhibition at 0.1 µM [1, 9] [%] | IC50 [2] [nM] | IC50 [2, 10] [nM] | also measured
Nc1nc2ccc(NC(=O)Nc3ccc(Cl)cc3)cc2s1 [Example 1, 1-(2-aminobenzo[d]thiazol-6-yl)-3-(4-chlorophenyl)urea] | 76.1 | 4.8 | – | –
Nc1nc2ccc(NC(=O)NC34C[C@H]5C[C@@H](C3)C[C@@H](C4)C5)cc2s1 [Example 4, 1-(2-aminobenzo[d]thiazol-6-yl)-3-[(3s,5s,7s)-adamantan-1-yl]urea] | 77.3 | 122 | – | –
O=C(Nc1ccc(Cl)cc1)Nc1ccc2nc(NC(=O)Nc3ccc(Cl)cc3)sc2c1 [Example 7, 1,1′-(benzo[d]thiazol-2,6-diyl)bis[3-(4-chlorophenyl)urea]] | 59.9 | – | 9.2 | –
Nc1nc2ccc(N(CCN3CCOCC3)C(=O)Nc3ccc(Cl)cc3)cc2s1 [Example 12, 1-(2-aminobenzo[d]thiazol-6-yl)-1-[2-(4-morpholinyl)ethyl]-3-(4-chlorophenyl)urea] | – | – | 4.1 | inhibition at 0.1 µM [1]: 68.7%; carrageenan-induced paw swelling (paw thickness) [3]: significantly inhibit; effect on paw swelling compared with celecoxib [3]: better than that of celecoxib; Water content in brain (%) ([4]; 30 mg/kg intraperitoneal, 72 hours before traumatic brain injury, * p < 0.05 vs blank solvent group): 79.46 ± 0.68 * %; EB content (μg/g) ([4]; 30 mg/kg intraperitoneal, Evans blue in brain, 24 hours after model, * p < 0.05 vs blank solvent group): 25.23 ± 1.63 * μg/g; water content in brain (in words) ([4]; traumatic brain injury rats, text summary of Table 4): reduce the water content; blood glucose [5]: significantly lower than that of the model group; glucose tolerance [5]: higher than that of the model group; paw withdrawal time in hot plate dolorimeter [6]: significantly prolong the paw withdrawal time; immobility time in forced swimming [7]: significantly reduce the immobility time
Nc1nc2ccc(N(CCN3CCOCC3)C(=O)Nc3ccc(C(F)(F)F)cc3)cc2s1 [Example 13, 1-(2-aminobenzo[d]thiazol-6-yl)-1-[2-(4-morpholinyl)ethyl]-3-(4-trifluoromethylphenyl)urea] | 63.9 | – | 2.8 | –
Nc1nc2ccc(N(CCN3CCOCC3)C(=O)Nc3ccc(F)c(Br)c3)cc2s1 [Example 16, 1-(2-aminobenzo[d]thiazol-6-yl)-1-[2-(4-morpholinyl)ethyl]-3-(3-bromo-4-fluorophenyl)urea] | 79.7 | – | 0.25 | level of EETs in mouse kidney tissue ([8]; FIG. 1): maintain the level of EETs; collagen deposition ([8]; FIG. 2): reduce the collagen deposition; fibrotic areas ([8]; FIG. 2): decrease the fibrotic areas
CCc1ccc(NC(=O)N(CCN2CCOCC2)c2ccc3nc(N)sc3c2)cc1 [Example 18, 1-(2-aminobenzo[d]thiazol-6-yl)-1-[2-(4-morpholinyl)ethyl]-3-(4-ethylphenyl)urea] | 84.7 | 6.7 | – | carrageenan-induced paw swelling (paw thickness) [3]: significantly inhibit; effect on paw swelling compared with celecoxib [3]: better than that of celecoxib
CN(C)CCN(C(=O)Nc1ccc(Cl)cc1)c1ccc2nc(N)sc2c1 [Example 25, 1-(2-aminobenzo[d]thiazol-6-yl)-1-[2-(N,N-dimethylamino)ethyl]-3-(4-chlorophenyl)urea] | 70.4 | – | 27.1 | –
O=C(Cc1ccccc1)Nc1nc2ccc(N(CCN3CCOCC3)C(=O)Nc3ccc(Cl)cc3)cc2s1 [Example 27, 1-(2-phenylacetamidobenzo[d]thiazol-6-yl)-1-[2-(4-morpholinyl)ethyl]-3-(4-chlorophenyl)urea] | 79.4 | 0.02 | – | carrageenan-induced paw swelling (paw thickness) [3]: significantly inhibit; effect on paw swelling compared with celecoxib [3]: better than that of celecoxib
CCOC(=O)CNc1nc2ccc(N(CCN3CCOCC3)C(=O)Nc3ccc(Cl)cc3)cc2s1 [Example 29] | 69 | – | 2.6 | –
CC(=O)Nc1nc2ccc(N(CCN3CCOCC3)C(=O)Nc3ccc(Cl)cc3)cc2s1 [Example 30, 1-(2-acetamidobenzo[d]thiazol-6-yl)-1-[2-(4-morpholinyl)ethyl]-3-(4-chlorophenyl)urea] | 27.5 | – | 1.9 | –

— US20230219911A1, “BENZOTHIAZOLE DERIVATIVES AND USES THEREOF” (SHENYANG PHARMACEUTICAL UNIVERSITY, priority 2020, published 2023)
